Experimental data as given in the supplement of paper PMC10307832.

How the values were obtained:
Assay in all cases: relative viability (nuclei count vs DMSO), 5 days (fraction); higher = more cells survive
4EGI-1 + Lapatinib = compound: O=C(O)C(Cc1ccccc1[N+](=O)[O-])=NNc1nc(-c2ccc(Cl)c(Cl)c2)cs1 (mixture of isomers) [4EGI-1] + CS(=O)(=O)CCNCc1ccc(-c2ccc3ncnc(Nc4ccc(OCc5cccc(F)c5)c(Cl)c4)c3c2)o1 [Lapatinib] (partner 2 µM)
In short: (§1)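 After 5 days of treatment, lung cancer cells in 1536-well plates were fixed and stained in a single step (final 0.05% Triton X-100, 1% formaldehyde, 1 ug/ml Hoechst) and their nuclei counted on 4× images. Treatment had been applied by pin tool the day after seeding as one drug alone or as a fixed anchor-drug dose with five library-drug doses (not always all listed) in √10 steps. Relative viability is the nuclei count of treated wells divided by that of vehicle wells, and values are medians of duplicate plates.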

4EGI-1 + OSI-027 = compound: O=C(O)C(Cc1ccccc1[N+](=O)[O-])=NNc1nc(-c2ccc(Cl)c(Cl)c2)cs1 (mixture of isomers) [4EGI-1] + COc1cccc2cc(-c3nc([C@H]4CC[C@H](C(=O)O)CC4)n4ncnc(N)c34)[nH]c12 [OSI-027] (partner 0.5 µM)
In short: as §1

4EGI-1 + Pictilisib = compound: O=C(O)C(Cc1ccccc1[N+](=O)[O-])=NNc1nc(-c2ccc(Cl)c(Cl)c2)cs1 (mixture of isomers) [4EGI-1] + CS(=O)(=O)N1CCN(Cc2cc3nc(-c4cccc5[nH]ncc45)nc(N4CCOCC4)c3s2)CC1 [Pictilisib] (partner 1 µM)
In short: as §1

4EGI-1 + AZD7762 = compound: O=C(O)C(Cc1ccccc1[N+](=O)[O-])=NNc1nc(-c2ccc(Cl)c(Cl)c2)cs1 (mixture of isomers) [4EGI-1] + NC(=O)Nc1cc(-c2cccc(F)c2)sc1C(=O)N[C@H]1CCCNC1 [AZD7762] (partner 0.2 µM)
In short: as §1

## NCI-H1792
4EGI-1 + Lapatinib; first compound 0.5 µM
  relative viability: 0.84
4EGI-1 + Lapatinib; first compound 1.581 µM
  relative viability: 0.864
4EGI-1 + Lapatinib; first compound 5 µM
  relative viability: 0.899
4EGI-1 + Lapatinib; first compound 15.81 µM
  relative viability: 0.816
4EGI-1 + Lapatinib; first compound 50 µM
  relative viability: 0.557
4EGI-1 + OSI-027; first compound 0.5 µM
  relative viability: 0.886
4EGI-1 + OSI-027; first compound 1.581 µM
  relative viability: 0.75
4EGI-1 + OSI-027; first compound 5 µM
  relative viability: 0.62
4EGI-1 + OSI-027; first compound 15.81 µM
  relative viability: 0.579
4EGI-1 + OSI-027; first compound 50 µM
  relative viability: 0.503
4EGI-1 + Pictilisib; first compound 0.5 µM
  relative viability: 0.321
4EGI-1 + Pictilisib; first compound 1.581 µM
  relative viability: 0.209
4EGI-1 + Pictilisib; first compound 5 µM
  relative viability: 0.257
4EGI-1 + Pictilisib; first compound 15.81 µM
  relative viability: 0.214
4EGI-1 + Pictilisib; first compound 50 µM
  relative viability: 0.145
4EGI-1 + AZD7762; first compound 0.5 µM
  relative viability: 0.67
4EGI-1 + AZD7762; first compound 1.581 µM
  relative viability: 0.822
4EGI-1 + AZD7762; first compound 5 µM
  relative viability: 0.861
4EGI-1 + AZD7762; first compound 15.81 µM
  relative viability: 0.657
4EGI-1 + AZD7762; first compound 50 µM
  relative viability: 0.0923
